# Values of other authors, collected in PMC5641551, “Chemical Proteomics for Target Discovery of Head-to-Tail Cyclized Mini-Proteins” (Frontiers in Chemistry, 2017).
# System: FK-binding protein 12
# Details: no reference given; cited from earlier work
smiles,measurement,value
CO[C@H]1C[C@@H]2CC[C@@H](C)[C@@](O)(O2)C(=O)C(=O)N2CCCC[C@H]2C(=O)O[C@H]([C@H](C)C[C@@H]2CC[C@@H](O)[C@H](OC)C2)CC(=O)[C@H](C)/C=C(\C)[C@@H](O)[C@@H](OC)C(=O)[C@H](C)C[C@H](C)/C=C/C=C/C=C/1C [rapamycin],binding to FK-binding protein 12,binds to the protein FK-binding protein 12
